Laboratory results as given in the supplement of paper PMC8967900.

Legend:
Assay in all cases: selective drug sensitivity score (sDSS, relative to normal bone marrow) (sDSS (score)); higher = more potent and effective on the cell line relative to normal bone marrow cells
Conditions in all cases: 72 h
NALM-6 = test system: NALM-6
380 = test system: 380
MOLT-4 = test system: MOLT-4
REH = test system: REH
KASUMI-2 = test system: KASUMI-2
ALL-SIL = test system: ALL-SIL
P12-ICHIKAWA = test system: P12-ICHIKAWA
COG-LL-332h = test system: COG-LL-332h
COG-LL-319h = test system: COG-LL-319h
TANOUE = test system: TANOUE
HPB-ALL = test system: HPB-ALL
PF-382 = test system: PF-382
KOPN-8 = test system: KOPN-8
DND-41 = test system: DND-41
697 = test system: 697
SUP-B15 = test system: SUP-B15
P30-OHKUBO = test system: P30-OHKUBO
ALL-PO = test system: ALL-PO
NALM-16 = test system: NALM-16
MOLT-16 = test system: MOLT-16
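Also: ALL cell lines in 384-well plates, five doses spanning 10,000-fold, each plate scaled between vehicle and 100 µmol/L benzalkonium chloride controls, sDSS an adapted area-under-curve metric.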

Structure (SMILES)	selective drug sensitivity score (NALM-6)	selective drug sensitivity score 380	selective drug sensitivity score (MOLT-4)	selective drug sensitivity score (REH)	selective drug sensitivity score (KASUMI-2)	selective drug sensitivity score (ALL-SIL)	selective drug sensitivity score (P12-ICHIKAWA)	selective drug sensitivity score (COG-LL-332h)	selective drug sensitivity score (COG-LL-319h)	selective drug sensitivity score (TANOUE)	selective drug sensitivity score (HPB-ALL)	selective drug sensitivity score (PF-382)	selective drug sensitivity score (KOPN-8)	selective drug sensitivity score (DND-41)	selective drug sensitivity score 697	selective drug sensitivity score (SUP-B15)	selective drug sensitivity score (P30-OHKUBO)	selective drug sensitivity score (ALL-PO)	selective drug sensitivity score (NALM-16)	selective drug sensitivity score (MOLT-16)
CO[C@H]1C[C@@H]2CC[C@@H](C)[C@@](O)(O2)C(=O)C(=O)N2CCCC[C@H]2C(=O)O[C@H]([C@H](C)C[C@@H]2CC[C@@H](OP(C)(C)=O)[C@H](OC)C2)CC(=O)[C@H](C)/C=C(\C)[C@@H](O)[C@@H](OC)C(=O)[C@H](C)C[C@H](C)/C=C/C=C/C=C/1C [Ridaforolimus] (top concentration 100 nM)	-4.84	24.5	-2.04	6.96	8.66	3.06	-0.94	7.36	4.76	-4.84	-4.84	5.86	22.2	-2.54	12.5	8.96	4.36	2.66	-0.04	10.6
CC[C@@H](C(=O)[C@@H](C)[C@@H](O)[C@H](C)[C@@H]1O[C@@H]([C@@H](CC)C(=O)O)CC[C@@H]1C)[C@H]1O[C@]2(C=C[C@@H](O)[C@]3(CC[C@@](C)([C@H]4CC[C@](O)(CC)[C@H](C)O4)O3)O2)[C@H](C)C[C@@H]1C [Salinomycin] (top concentration 50000 nM)	-4.9	2.6	-5.3	-13	-23.2	0.6	-2	-2.9	-0.8	-7.5	-1.2	-5.4	-8.4	4.7	-0.9	-11.1	-7.8	-13.2	0.3	10.7
CC(C)Oc1ccc(C(=O)N[C@H](CNC(=O)CN(C)C)Cc2ccc(-c3cn4cccc([C@H](C)O)c4n3)cc2)cc1Cl (top concentration 10000 nM)	7.68	10.7	18.2	12.1	6.38	12.8	7.28	16.5	14.3	-9.32	8.18	6.68	14.2	-2.62	19.9	14.8	12.8	6.88	1.68	20.1
Nc1ncn([C@H]2C[C@H](O)[C@@H](CO)O2)c(=O)n1 [Decitabine] (top concentration 10000 nM)	-3.06	9.14	-0.96	3.94	-2.26	-3.06	1.14	4.34	10.7	-6.06	-0.66	-1.16	10.2	-4.66	17.5	16.5	4.64	4.54	-2.96	5.94
Cc1sc2c(c1C)C(c1ccc(Cl)cc1)=N[C@@H](CC(=O)Nc1ccc(O)cc1)c1nnc(C)n1-2 [Birabresib] (top concentration 10000 nM)	3.72	-9.68	-4.68	-3.18	-9.68	0.02	5.22	-4.28	13.5	-4.78	-0.08	3.42	11.6	0.92	10.6	3.42	7.22	5.22	1.52	7.92
O=C(O)C(=O)O.[NH-][C@@H]1CCCC[C@H]1[NH-].[Pt+2] [Oxaliplatin] (top concentration 100000 nM)	6.12	10.6	12.4	10	12.8	3.42	8.32	14.9	15.6	-6.98	-0.78	-0.28	16.9	1.42	16	16.6	14.1	-0.78	-1.48	17.1
